Measurements taken from paper PMC11187260, “Unraveling the interconversion pharmacokinetics and oral bioavailability of the major ginger constituents: [6]-gingerol, [6]-shogaol, and zingerone after single-dose administration in rats” (Frontiers in Pharmacology, 2024).

Tests used:
[1] = Tissue distribution after single oral administration (30 mg/kg); format: in vivo; settings: 1–2 h after oral 30 mg/kg
Method: Tissue distribution analysis was carried out after a 7-week washout period following the completion of the pharmacokinetic study. The animals received a single oral administration of either 6G, 6S, zingerone, or vehicle at a dosage of 30 mg/kg. Euthanasia was performed using an overdose of isoflurane (>10%) in an induction chamber, either one or 2 h after oral gavage (3 rats/timepoint), and death was confirmed by exsanguination. Subsequently, the stomach, small intestine, liver, large intestine, kidneys, heart, lung, hippocampus, cortex, spleen, ovaries, and spinal cord were collected. The dissected organs were thoroughly cleaned with a cold normal saline solution and the connective tissue was removed. The organs were then precisely weighed before being stored at −40 °C. All processes during tissue collection were performed on ice.
Urine samples were centrifuged, and 50 µL of urine was extracted with 200 µL of 100% methanol. The mixture was vortexed for 10 min and subsequently centrifuged at 14,000 × g at 4 °C for 10 min. Feces and organs were weighed and homogenized with methanol (50:50% w/v). The supernatants of the extracted urine, feces, and organs were also filtered through a […] PVDF membrane (Chrome Tech, MN, USA) before analysis.
Plasma concentration-time profiles were plotted using GraphPad Prism 9.3.0 (GraphPad Software, USA). The absolute oral bioavailability was calculated as follows: F = (AUC p.o./dose p.o.)/(AUC i.v./dose i.v.). The percentage recovery of each administered compound was calculated as the total amount of the drug found in urine or feces divided by the administered dose. The tissue-to-plasma concentration ratios (K p) were calculated by dividing the concentration in the tissue by the corresponding plasma concentration at the respective sampling time point.

[2] = Pharmacokinetics after single intravenous administration (3 mg/kg), plasma LC-MS/MS; format: in vivo, Female Sprague Dawley rats; settings: female, Sprague-Dawley, rat, iv, plasma analyte after zingerone i.v. 3 mg/kg, mean ± SD n=6
Method: This study is composed of two sections; the first section involves an investigation of the interconversion pharmacokinetics of the pure compounds, and the second focuses on tissue distribution. All rats were transferred to metabolic cages and fasted overnight for at least 10 h. The animals were then randomly divided into four groups (6 rats/group) to receive a single intravenous (i.v.) administration of either 6G, 6S, zingerone, or vehicle via the lateral tail vein at a dosage of 3 mg/kg. After a 7-week washout period, the rats received 30 mg/kg of the same test compounds through a single oral (p.o.) administration. Following each administration, blood samples (300 µL) were collected in heparinized tubes from the lateral tail vein (while rats were under anesthesia with isoflurane) at specified time points: 0.083, 0.25, 0.5, 1, 1.5, 2, 3, 4, 6, 8, and 24 h after administration. An additional 1 mL of blood sample was collected from each rat at pre-dose (0 h) and post-dose (24 h) for clinical laboratory testing and safety evaluation. All heparinized blood samples were initially centrifuged at 5,000 × g, 4 °C, for 10 min. Subsequently, the plasma was carefully transferred to a cryotube as an aliquot sample and then stored at −40 °C until analysis. Urine and feces were collected during the intervals of 0–24 h and 24–48 h post-dosing, and their weights and volumes were documented. All collected urine and feces samples were stored at −40 °C until analysis. Plasma samples were processed through protein precipitation. In brief, 50 µL of plasma was mixed with 200 µL of methanol containing 50 ng/mL of IS (dihydrocapsaicin). The mixtures were vortexed and centrifuged at 14,000 × g at 4 °C for 10 min. The supernatant was filtered through a […] PVDF membrane (Chrome Tech, MN, USA) before analysis. Investigation of glucuronide conjugations followed a previously published method with some modification ([Wang et al., 2017]; [Songvut et al., 2023]). A 50 μL aliquot of plasma, urine, or feces sample was incubated at 37 °C for a minimum of 30 min with 50 μL of β-glucuronidase (3,000 U/mL) in a sodium phosphate buffer (pH 6.8). For sample extraction, 150 μL of methanol containing 50 μg/L of IS was pipetted into the pre-incubated samples. Subsequently, the mixtures were vortexed for 10 min and then centrifuged at 14,000 × g at 4 °C for 10 min. The supernatants were filtered through a […] PVDF membrane (Chrome Tech, MN, United States) and then analyzed using the validated LC-MS/MS method. Quantitative analysis was conducted using liquid chromatography-tandem mass spectrometry (LC-MS/MS) with a Nexera X2 LCMS-8060NX instrument (Shimadzu, Japan). The instrument included a CBM-40lite system controller, CTO-40C column oven, SIL-40C XR autosampler, LC-40D XR solvent pump unit, FCV-DGU-403 degasser, and 20AH2 switching valve. The LC-MS/MS system was operated with a binary pump and equipped with a triple quadrupole mass spectrometer. Pharmacokinetic parameters were assessed using PK Solutions software (version 2.0) with non-compartmental analysis. The AUC was calculated using the Linear-Log Trapezoidal Method. The maximum plasma concentration (Cmax) and time to reach maximum plasma concentration (Tmax) were taken directly from the graph.

[3] = parameters: method as in Xu et al. (2016) and Jiang et al. (2008); settings: 6G after oral administration in rats; ref Xu et al. (2016) and Jiang et al. (2008); cited from earlier work

| SMILES | distribution to brain regions (hippocampus and cortex) [1] | AUC(0-inf) [2] [ng·h/mL] | C0 [2] [ng/mL] | AUC(0-t) ([2]; read-out: AUC(0-t)) [ng·h/mL] | tissue-to-plasma ratios (rank among compounds) [1] | Tmax [3] [min] |
| --- | --- | --- | --- | --- | --- | --- |
| CCCCC/C=C/C(=O)CCc1ccc(O)c(OC)c1 [[6]-shogaol] | lacking presence in key brain regions |  |  |  |  |  |
| COc1cc(CCC(C)=O)ccc1O [zingerone, 4-(4-hydroxy-3-methoxyphenyl)-2-butanone] | higher concentrations | 12600 | 35100 | 12600 | highest |  |
| CCCCC[C@H](O)CC(=O)CCc1ccc(O)c(OC)c1 [[6]-gingerol] |  |  |  |  |  | 10 |
